# Measured values published in PubChem BioAssay (NCI).
#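 How tested: cells in 96-well plates exposed to compound for 48 hours at five concentrations. GI50 marks 50% less growth. Definition used: TGI = concentration required for complete inhibition of growth.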
# Columns and labels:
# Test in all cases: growth of human tumour cells (NCI), 48 h
# HT29 colon = system: HT29 colon
# SR leukemia = system: SR leukemia
# LOX IMVI melanoma = system: LOX IMVI melanoma
# HS 578T breast = system: HS 578T breast
# SNB-19 CNS = system: SNB-19 CNS
# COLO 205 colon = system: COLO 205 colon
# KM12 colon = system: KM12 colon
# 786-0 renal = system: 786-0 renal
# CAKI-1 renal = system: CAKI-1 renal
# RPMI-8226 leukemia = system: RPMI-8226 leukemia
# HOP-62 NSCLC = system: HOP-62 NSCLC
# SK-MEL-28 melanoma = system: SK-MEL-28 melanoma
# UACC-62 melanoma = system: UACC-62 melanoma
# SK-MEL-2 melanoma = system: SK-MEL-2 melanoma
# UACC-257 melanoma = system: UACC-257 melanoma
# ACHN renal = system: ACHN renal
# OVCAR-8 ovarian = system: OVCAR-8 ovarian
# SK-MEL-5 melanoma = system: SK-MEL-5 melanoma
# T-47D breast = system: T-47D breast
# EKVX NSCLC = system: EKVX NSCLC
# MCF7 breast = system: MCF7 breast
# MOLT-4 leukemia = system: MOLT-4 leukemia
# OVCAR-5 ovarian = system: OVCAR-5 ovarian
# SF-268 CNS = system: SF-268 CNS
# SK-OV-3 ovarian = system: SK-OV-3 ovarian
# A549 NSCLC = system: A549 NSCLC
# NCI-H226 lung = system: NCI-H226 lung
# HL-60(TB) leukemia = system: HL-60(TB) leukemia
# CCRF-CEM leukemia = system: CCRF-CEM leukemia
# PC-3 prostate = system: PC-3 prostate
# MALME-3M melanoma = system: MALME-3M melanoma
# K-562 leukemia = system: K-562 leukemia
# HCC-2998 colon = system: HCC-2998 colon
# BT-549 breast = system: BT-549 breast
# NCI-H460 lung = system: NCI-H460 lung
# OVCAR-4 ovarian = system: OVCAR-4 ovarian
# OVCAR-3 ovarian = system: OVCAR-3 ovarian
# NCI-H23 lung = system: NCI-H23 lung
# TK-10 renal = system: TK-10 renal
# NCI/ADR-RES ovarian = system: NCI/ADR-RES ovarian
# UO-31 renal = system: UO-31 renal
# RXF 393 renal = system: RXF 393 renal
# U251 CNS = system: U251 CNS
# HCT-15 colon = system: HCT-15 colon
# DU-145 prostate = system: DU-145 prostate
# SF-539 CNS = system: SF-539 CNS
# IGROV1 ovarian = system: IGROV1 ovarian
# HCT-116 colon = system: HCT-116 colon
# A498 renal = system: A498 renal
# HOP-92 NSCLC = system: HOP-92 NSCLC
# SNB-75 CNS = system: SNB-75 CNS
# MDA-MB-231 breast = system: MDA-MB-231 breast
# SW-620 colon = system: SW-620 colon
# NCI-H522 lung = system: NCI-H522 lung
# M14 melanoma = system: M14 melanoma
# SF-295 CNS = system: SF-295 CNS
# MDA-MB-435 = system: MDA-MB-435
# SN12C renal = system: SN12C renal
smiles,measurement,setting,value
C#CC#CC#CC#CC#CC#CC#CC#CC[C@@H]1OC[C@H](COC(=O)O[C@@H](C(=O)O[C@H]2C[C@@]3(O)[C@@H](OC(=O)c4ccccc4)[C@@H]4[C@]5(OC(C)=O)CO[C@@H]5C[C@H](O)[C@@]4(C)C(=O)[C@H](OC(C)=O)C(=C2C)C3(C)C)[C@@H](NC(=O)c2ccccc2)c2ccccc2)O1,GI50,HT29 colon,0.355 µM
same,TGI,HT29 colon,> 25 µM
same,GI50,SR leukemia,0.862 µM
same,TGI,SR leukemia,> 25 µM
same,GI50,LOX IMVI melanoma,0.708 µM
same,TGI,LOX IMVI melanoma,> 25 µM
same,GI50,HS 578T breast,0.673 µM
same,TGI,HS 578T breast,> 25 µM
same,GI50,SNB-19 CNS,3.88 µM
same,TGI,SNB-19 CNS,> 25 µM
same,GI50,COLO 205 colon,0.665 µM
same,TGI,COLO 205 colon,> 10.8 µM
same,GI50,KM12 colon,0.683 µM
same,TGI,KM12 colon,> 25 µM
same,GI50,786-0 renal,> 25 µM
same,TGI,786-0 renal,> 25 µM
same,GI50,CAKI-1 renal,5.85 µM
same,TGI,CAKI-1 renal,> 25 µM
same,GI50,RPMI-8226 leukemia,0.436 µM
same,TGI,RPMI-8226 leukemia,> 25 µM
same,GI50,HOP-62 NSCLC,5.13 µM
same,TGI,HOP-62 NSCLC,> 25 µM
same,GI50,SK-MEL-28 melanoma,3.88 µM
same,TGI,SK-MEL-28 melanoma,> 25 µM
same,GI50,UACC-62 melanoma,5.58 µM
same,TGI,UACC-62 melanoma,> 25 µM
same,GI50,SK-MEL-2 melanoma,5.65 µM
same,TGI,SK-MEL-2 melanoma,> 25 µM
same,GI50,UACC-257 melanoma,6.61 µM
same,TGI,UACC-257 melanoma,> 25 µM
same,GI50,ACHN renal,> 25 µM
same,TGI,ACHN renal,> 25 µM
same,GI50,OVCAR-8 ovarian,1.57 µM
same,TGI,OVCAR-8 ovarian,> 25 µM
same,GI50,SK-MEL-5 melanoma,3.13 µM
same,TGI,SK-MEL-5 melanoma,> 25 µM
same,GI50,T-47D breast,1.07 µM
same,TGI,T-47D breast,> 25 µM
same,GI50,EKVX NSCLC,> 25 µM
same,TGI,EKVX NSCLC,> 25 µM
same,GI50,MCF7 breast,0.348 µM
same,TGI,MCF7 breast,> 25 µM
same,GI50,MOLT-4 leukemia,1.85 µM
same,TGI,MOLT-4 leukemia,> 25 µM
same,GI50,OVCAR-5 ovarian,1.58 µM
same,TGI,OVCAR-5 ovarian,> 25 µM
same,GI50,SF-268 CNS,1.93 µM
same,TGI,SF-268 CNS,> 25 µM
same,GI50,SK-OV-3 ovarian,3.32 µM
same,TGI,SK-OV-3 ovarian,> 25 µM
same,GI50,A549 NSCLC,1.42 µM
same,TGI,A549 NSCLC,> 25 µM
same,GI50,NCI-H226 lung,> 21.8 µM
same,TGI,NCI-H226 lung,> 25 µM
same,GI50,HL-60(TB) leukemia,0.819 µM
same,TGI,HL-60(TB) leukemia,> 18.7 µM
same,GI50,CCRF-CEM leukemia,1.25 µM
same,TGI,CCRF-CEM leukemia,> 25 µM
same,GI50,PC-3 prostate,1.58 µM
same,TGI,PC-3 prostate,> 25 µM
same,GI50,MALME-3M melanoma,2.07 µM
same,TGI,MALME-3M melanoma,> 25 µM
same,GI50,K-562 leukemia,1.04 µM
same,TGI,K-562 leukemia,> 25 µM
same,GI50,HCC-2998 colon,1.26 µM
same,TGI,HCC-2998 colon,> 25 µM
same,GI50,BT-549 breast,3.71 µM
same,TGI,BT-549 breast,> 25 µM
same,GI50,NCI-H460 lung,0.185 µM
same,TGI,NCI-H460 lung,> 25 µM
same,GI50,OVCAR-4 ovarian,> 21 µM
same,TGI,OVCAR-4 ovarian,> 25 µM
same,GI50,OVCAR-3 ovarian,0.682 µM
same,TGI,OVCAR-3 ovarian,> 25 µM
same,GI50,NCI-H23 lung,2.24 µM
same,TGI,NCI-H23 lung,> 25 µM
same,GI50,TK-10 renal,> 25 µM
same,TGI,TK-10 renal,> 25 µM
same,GI50,NCI/ADR-RES ovarian,> 25 µM
same,TGI,NCI/ADR-RES ovarian,> 25 µM
same,GI50,UO-31 renal,> 25 µM
same,TGI,UO-31 renal,> 25 µM
same,GI50,RXF 393 renal,> 5.16 µM
same,TGI,RXF 393 renal,> 25 µM
same,GI50,U251 CNS,1.42 µM
same,TGI,U251 CNS,> 25 µM
same,GI50,HCT-15 colon,> 25 µM
same,TGI,HCT-15 colon,> 25 µM
same,GI50,DU-145 prostate,0.681 µM
same,TGI,DU-145 prostate,> 25 µM
same,GI50,SF-539 CNS,1.2 µM
same,TGI,SF-539 CNS,> 25 µM
same,GI50,IGROV1 ovarian,1.29 µM
same,TGI,IGROV1 ovarian,> 25 µM
same,GI50,HCT-116 colon,0.596 µM
same,TGI,HCT-116 colon,> 25 µM
same,GI50,A498 renal,1.39 µM
same,TGI,A498 renal,> 23.5 µM
same,GI50,HOP-92 NSCLC,> 18.5 µM
same,TGI,HOP-92 NSCLC,> 25 µM
same,GI50,SNB-75 CNS,0.114 µM
same,TGI,SNB-75 CNS,1.48 µM
same,GI50,MDA-MB-231 breast,4.17 µM
same,TGI,MDA-MB-231 breast,> 25 µM
same,GI50,SW-620 colon,0.819 µM
same,TGI,SW-620 colon,> 25 µM
same,GI50,NCI-H522 lung,1.81 µM
same,TGI,NCI-H522 lung,> 25 µM
same,GI50,M14 melanoma,1.09 µM
same,TGI,M14 melanoma,24.9 µM
same,TGI,SF-295 CNS,> 25 µM
same,GI50,MDA-MB-435,0.0987 µM
same,TGI,MDA-MB-435,0.398 µM
same,GI50,SN12C renal,4.36 µM
same,TGI,SN12C renal,> 25 µM
